Results: patent US20260042762A1 (Kymera Therapeutics, Inc., priority 2018, published 2026)

Biological target: T1, MerTK (Homo sapiens, UniProt Q12866)
T1 construct: endogenous in cells; host or cells: Jurkat cells
T1 sequence (Q12866 21-999): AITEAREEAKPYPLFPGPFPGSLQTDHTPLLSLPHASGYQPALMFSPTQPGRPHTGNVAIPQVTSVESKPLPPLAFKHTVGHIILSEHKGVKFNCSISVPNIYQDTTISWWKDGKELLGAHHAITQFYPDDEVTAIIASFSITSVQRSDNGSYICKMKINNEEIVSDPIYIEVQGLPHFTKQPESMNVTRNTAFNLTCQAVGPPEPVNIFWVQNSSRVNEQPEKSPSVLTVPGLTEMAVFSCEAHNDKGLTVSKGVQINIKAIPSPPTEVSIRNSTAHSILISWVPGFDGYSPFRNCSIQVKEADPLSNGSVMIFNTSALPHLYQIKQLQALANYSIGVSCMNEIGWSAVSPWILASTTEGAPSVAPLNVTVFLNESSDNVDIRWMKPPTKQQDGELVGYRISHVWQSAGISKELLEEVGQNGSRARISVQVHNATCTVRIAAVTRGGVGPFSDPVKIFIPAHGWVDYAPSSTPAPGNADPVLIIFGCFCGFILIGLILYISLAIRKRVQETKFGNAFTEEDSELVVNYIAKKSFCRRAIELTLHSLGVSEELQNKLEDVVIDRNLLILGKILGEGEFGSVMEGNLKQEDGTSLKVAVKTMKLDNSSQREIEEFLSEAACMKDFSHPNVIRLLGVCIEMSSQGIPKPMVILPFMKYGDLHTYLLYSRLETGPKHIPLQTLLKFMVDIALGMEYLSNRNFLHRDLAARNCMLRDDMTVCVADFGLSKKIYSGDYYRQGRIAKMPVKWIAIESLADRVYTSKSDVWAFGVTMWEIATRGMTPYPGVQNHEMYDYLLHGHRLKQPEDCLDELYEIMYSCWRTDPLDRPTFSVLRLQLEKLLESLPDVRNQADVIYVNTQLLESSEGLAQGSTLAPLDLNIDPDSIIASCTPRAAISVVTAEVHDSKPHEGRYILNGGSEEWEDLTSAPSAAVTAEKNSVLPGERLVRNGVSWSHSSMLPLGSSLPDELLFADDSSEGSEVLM
Test: MerTk degradation in Jurkat cells (Western blot)
Format: cell-based
Settings: Jurkat, 4 h, 0.001-1 μM, 4 hour-incubation at 37° C., read-out: Jurkat Max % MerTK Degradation
In short: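 Jurkat cells treated 4 h at 37 °C with compound at 0.001-1 μM final. RIPA lysates quantified by BCA, then MerTK probed by Western blot against actin loading control with IR-dye secondaries and Odyssey imaging.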

Row | SMILES | Dmax
1 | Cn1c(=O)n([C@H]2CCC(=O)NC2=O)c2ccc(CCCOCCOCCN3CCN(C[C@H]4CC[C@H](c5cn([C@H]6CC[C@H](O)CC6)c6nc(NCCC(F)(F)F)ncc65)CC4)CC3)cc21 [I-154, 3-[3-methyl-2-oxo-5-(3-[2-[2-(4-[[(1r,4r)-4-[7-[trans-4-hydroxycyclohexyl]-2-[(3,3,3-trifluoropropyl)amino]pyrrolo[2,3-d]pyrimidin-5-y1]cyclohexyl]methyl]piperazin-1-y1)ethoxy]ethoxy]propyl)-1,3-benzodiazol-1-yl]piperidine-2,6-dione] | > 50%
2 | Cn1c(=O)n([C@H]2CCC(=O)NC2=O)c2ccc(CCOC3CCN(C4CCN(Cc5ccc(-c6cn([C@H]7CC[C@H](O)CC7)c7nc(NCCC(F)(F)F)ncc67)cc5)CC4)CC3)cc21 [I-155, 3-[3-methyl-2-oxo-5-[2-([1-[(4-[7-[trans-4-hydroxycyclohexy1]-2-[(3,3,3-trifluoropropyl)amino]pyrrolo[2,3-d]pyrimidin-5-yl]phenyl)methyl]-[1,4-bipiperidin]-4-yl]oxy)ethyl]-1,3-benzodiazol-1-yl]piperidine-2,6-dione; formic acid] | > 50%
3 | Cn1c(=O)n([C@H]2CCC(=O)NC2=O)c2ccc(CCCC3CN(C4CCN(Cc5ccc(-c6cn([C@H]7CC[C@H](O)CC7)c7nc(NCCC(F)(F)F)ncc67)cc5)CC4)C3)cc21 [I-156, 3-[3-methyl-2-oxo-5-[3-(1-[1-[(4-[7-[trans-4-hydroxycyclohexy1]-2-[(3,3,3-trifluoropropyl)amino]pyrrolo[2,3-d]pyrimidin-5-y1]phenyl)methyl]piperidin-4-yl]azetidin-3-yl)propyl]-1,3-benzodiazol-1-yl]piperidine-2,6-dione; formic acid] | > 50%
4 | Cn1c(=O)n([C@H]2CCC(=O)NC2=O)c2ccc(COC3CCN(C4CCN(Cc5ccc(-c6cn([C@H]7CC[C@H](O)CC7)c7nc(NCCC(F)(F)F)ncc67)cc5)CC4)CC3)cc21 [I-157, 3-[3-methyl-2-oxo-5-[([1-[(4-[7-[trans-4-hydroxycyclohexy1]-2-[(3,3,3-trifluoropropyl)amino]pyrrolo[2,3-d]pyrimidin-5-yl]phenyl)methyl]-[1,4-bipiperidin]-4-yl]oxy)methyl]-1,3-benzodiazol-1-y1]piperidine-2,6-dione; formic acid] | > 50%
5 | Cn1c(=O)n(C2CCC(=O)NC2=O)c2ccc(CN3CCN([C@H]4CCN(Cc5ccc(-c6cn([C@H]7CC[C@H](O)CC7)c7nc(NCCC(F)(F)F)ncc67)cc5)C4)CC3)cc21 (stereo partly drawn) [I-158, 3-[3-methyl-2-oxo-5-([4-[(3R)-1-[(4-[7-[trans-4-hydroxycyclohexy1]-2-[(3,3,3-trifluoropropyl)amino]pyrrolo[2,3-d]pyrimidin-5-y1]phenyl)methyl]pyrrolidin-3-y1]piperazin-1-yl]methyl)-1,3-benzodiazol-1-yl]piperidine-2,6-dione] | > 50%
6 | Cn1c(=O)n([C@H]2CCC(=O)NC2=O)c2cccc(CN3CCC(CC4CCN(Cc5ccc(-c6cn([C@H]7CC[C@H](O)CC7)c7nc(NCCC(F)(F)F)ncc67)cc5)CC4)CC3)c21 [I-159, 3-(3-methyl-2-oxo-4-[[4-([1-[(4-[7-[trans-4-hydroxycyclohexy1]-2-[(3,3,3-trifluoropropyl)amino]pyrrolo[2,3-d]pyrimidin-5-y1]phenyl)methyl]piperidin-4-y1]methyl)piperidin-1-yl]methyl]-1,3-benzodiazol-1-yl)piperidine-2,6-dione] | > 50%

Second part, the compound after the results:

Row | Dmax | SMILES
7 | > 50% | Cn1c(=O)n(C2CCC(=O)NC2=O)c2ccc(CCCOCC(F)CN3CCN(Cc4ccc(-c5cn([C@H]6CC[C@H](O)CC6)c6nc(NCCC(F)(F)F)ncc56)cc4)CC3)cc21 (stereo partly drawn) [I-160, 3-[5-[3-(2-fluoro-3-[4-[(4-[7-[trans-4-hydroxycyclohexy1]-2-[(3,3,3-trifluoropropyl)amino]pyrrolo[2,3-d]pyrimidin-5-yl]phenyl)methyl]piperazin-1-yl]propoxy)propyl]-3-methyl-2-oxo-1,3-benzodiazol-1-yl]piperidine-2,6-dione]
8 | < 20% | Cc1ncsc1-c1ccc(CNC(=O)[C@@H]2C[C@@H](O)CN2C(=O)[C@@H](NC(=O)CCCCCN2CCN(Cc3ccc(-c4cn([C@H]5CC[C@H](O)CC5)c5nc(NCCC(F)(F)F)ncc45)cc3)CC2)C(C)(C)C)cc1 [I-161, (2S,4R)-1-[(2S)-3,3-dimethyl-2-(6-[4-[(4-[7-[trans-4-hydroxycyclohexyl]-2-[(3,3,3-trifluoropropyl)amino]pyrrolo[2,3-d]pyrimidin-5-yl]phenyl)methyl]piperazin-1-yl]hexanamido)butanoyl]-4-hydroxy-N-[[4-(4-methyl-1,3-thiazol-5-yl)phenyl]methyl]pyrrolidine-2-carboxamide]
9 | < 20% | Cc1ncsc1-c1ccc(CNC(=O)[C@@H]2C[C@@H](O)CN2C(=O)[C@@H](NC(=O)CCCCCCN2CCN(Cc3ccc(-c4cn([C@H]5CC[C@H](O)CC5)c5nc(NCCC(F)(F)F)ncc45)cc3)CC2)C(C)(C)C)cc1 [I-162, (2S,4R)-1-[(2S)-3,3-dimethyl-2-(7-[4-[(4-[7-[trans-4-hydroxycyclohexyl]-2-[(3,3,3-trifluoropropyl)amino]pyrrolo[2,3-d]pyrimidin-5-yl]phenyl)methyl]piperazin-1-yl]heptanamido)butanoyl]-4-hydroxy-N-[[4-(4-methyl-1,3-thiazol-5-yl)phenyl]methyl]pyrrolidine-2-carboxamide]
10 | > 50% | Cn1c(=O)n([C@H]2CCC(=O)NC2=O)c2ccc(CCCOCCOC3CCN(C[C@H]4CC[C@H](c5cn([C@H]6CC[C@H](O)CC6)c6nc(NCCC(F)(F)F)ncc65)CC4)CC3)cc21 [I-163]
11 | > 50% | Cn1c(=O)n([C@H]2CCC(=O)NC2=O)c2ccc(CCCOCCOCCC3CCN(C[C@H]4CC[C@H](c5cn([C@H]6CC[C@H](O)CC6)c6nc(NCCC(F)(F)F)ncc65)CC4)CC3)cc21 [I-164, 3-[3-methyl-2-oxo-5-(3-[2-[2-(1-[[trans-4-[7-[trans-4-hydroxycyclohexyl]-2-[(3,3,3-trifluoropropyl)amino]pyrrolo[2,3-d]pyrimidin-5-yl]cyclohexyl]methyl]piperidin-4-yl)ethoxy]ethoxy]propyl)-1,3-benzodiazol-1-y1]piperidine-2,6-dione]
12 | < 20% | Cc1ncsc1-c1ccc(CNC(=O)[C@@H]2C[C@@H](O)CN2C(=O)[C@@H](NC(=O)COCCOCCN2CCN(Cc3ccc(-c4cn([C@H]5CC[C@H](O)CC5)c5nc(NCCC(F)(F)F)ncc45)cc3)CC2)C(C)(C)C)cc1 [I-165, (2S,4R)-1-[(2S)-3,3-dimethyl-2-[2-[2-(2-[4-[(4-[7-[trans-4-hydroxycyclohexyl]-2-[(3,3,3-trifluoropropyl)amino]pyrrolo[2,3-d]pyrimidin-5-yl]phenyl)methyl]piperazin-1-yl]ethoxy)ethoxy]acetamido]butanoyl]-4-hydroxy-N-[[4-(4-methyl-1,3-thiazol-5-yl)phenyl]methyl]pyrrolidine-2-carboxamide]
13 | > 50% | Cc1ncsc1-c1ccc(CNC(=O)[C@@H]2C[C@@H](O)CN2C(=O)[C@@H](NC(=O)COCCOCCOCCN2CCN(Cc3ccc(-c4cn([C@H]5CC[C@H](O)CC5)c5nc(NCCC(F)(F)F)ncc45)cc3)CC2)C(C)(C)C)cc1 [I-166, (2S,4R)-1-[(2S)-3,3-dimethyl-2-(2-[2-[2-(2-[4-[(4-[7-[trans-4-hydroxycyclohexyl]-2-[(3,3,3-trifluoropropyl)amino]pyrrolo[2,3-d]pyrimidin-5-yl]phenyl)methyl]piperazin-1-yl]ethoxy)ethoxy]ethoxy]acetamido)butanoyl]-4-hydroxy-N-[[4-(4-methyl-1,3-thiazol-5-yl)phenyl]methyl]pyrrolidine-2-carboxamide]
14 | < 20% | CN(C)c1cccc2c(S(=O)(=O)Nc3cccc(-c4cnc(NCCOCCN5CCN(Cc6ccc(-c7cn([C@H]8CC[C@H](O)CC8)c8nc(NCCC(F)(F)F)ncc78)cc6)CC5)nc4N4CCC(c5ccccc5)C4C(=O)O)c3)cccc12 (stereo partly drawn) [I-167, 1-(5-[3-[5-(Dimethylamino)naphthalene-1-sulfonamido]phenyl]-2-[[2-(2-[4-[(4-[7-[trans-4-hydroxycyclohexyl]-2-[(3,3,3-trifluoropropyl)amino]pyrrolo[2,3-d]pyrimidin-5-yl]phenyl)methyl]piperazin-1-yl]ethoxy)ethyl]amino]pyrimidin-4-yl)-3-phenylpyrrolidine-2-carboxylic acid]
